Experimental data from article PMC6155649 (Molecules : A Journal of Synthetic Chemistry and Natural …, 2017).
Read-outs that look alike come from different tables or passages of the source. Marks after values point to notes of the source that are not given here.

Legend:
[1] = system: human lung MRC-5 fibroblasts; assay: cytotoxicity, Alamar Blue (resazurin) assay; conditions: human MRC-5 fibroblasts, 3 days incubation
Procedure: All compounds were tested for cytotoxicity on human lung MRC-5 fibroblasts using the Alamar Blue assay (Table 1 and Table 2).
MRC-5SV2 cells are cultured in Earls MEM +5% FCSi. […] After 3 days incubation, cell viability is assessed fluorimetrically after addition of resazurin and fluorescence is measured (λex 550 nm, λem 590 nm). The results are expressed as % reduction in cell growth/viability compared to untreated control wells and CC50 is determined.

[2] = system: P. falciparum Dd2; assay: tritiated hypoxanthine incorporation growth inhibition assay; assay type: cell-based; conditions: for IC50: mean value
Procedure: (§1) The protocols are described in the experimental section. Two protocols to measure the growth inhibition were used: the tritiated hypoxanthine incorporation method and the SYBRgreen method. This was due to the fact that the radioactive assay was abandoned in the laboratory due to cost issues related to radioactive waste disposal. […] All data are mean values from one to four independent experiments, each consisting of eight drug concentrations in duplicate.
The IC50 values were determined using standard in vitro proliferation assays. […] The amount of radioactivity in precipitable material served as an index of parasite proliferation.

[3] = system: P. falciparum Dd2; assay: SYBRgreen growth inhibition assay; assay type: cell-based; conditions: read-out: IC50 (nM) ± SD (n)
Procedure: as §1
Parasite replication was assessed by fluorescent SYBRgreen staining of parasitic DNA [60] as previously described. IC50 values were calculated using SigmaPlot.

[4] = system: human lung MRC-5 fibroblasts; parameters: method as in PMID 21682307; conditions: human MRC-5 fibroblasts, previously reported values; cited from earlier work
[5] = system: P. berghei strain ANKA; parameters: method as in PMID 21682307; conditions: P. berghei strain ANKA-infected CD1 mice, day 4; cited from earlier work
[6] = system: P. falciparum Dd2; parameters: method as in PMID 21682307; conditions: P. falciparum Dd2, tritiated hypoxanthine incorporation method, previously reported values; cited from earlier work
[7] = system: P. berghei (ANKA-strain); assay: in vivo antimalarial activity in P. berghei ANKA-infected Swiss mice; parameters: species or system Plasmodium berghei; conditions: for % Parasitaemia (dpi) 4 / % Suppression (dpi) 4: day 4 post infection; for % Parasitaemia (dpi) 7 / % Suppression (dpi) 7: day 7 post infection; for % Parasitaemia (dpi) 11 / % Suppression (dpi) 11: day 11 post infection
Procedure: Swiss mice (female—BW ~ 25 g; Janvier France, Le Genest Saint Isle, France) were allocated randomly to five groups of four animals each. Drinking water and food were available ad libitum throughout the experiment.
P. berghei (ANKA-strain) is maintained in the laboratory by weekly mechanical subpassage in Swiss mice. The infection inoculum was prepared by taking heparinized blood was collected from a clinically ill donor mouse (approximately 20% parasitaemia) and diluted in PBS to obtain an infection inoculum of 0.15 mL with about 4 × 10^8 infected erythrocytes. The infection-inoculum was given intraperitoneally. The untreated infected controls developed severe malaria with most animals showing severe clinical signs on day 4. […]. […]

[8] = target: Fe^III-heme; conditions: read-out: KD of the 1:1 π-π complex with Fe^III-heme; pH 7.5; cited from earlier work
[9] = absorption spectrophotometric titrations versus pH (pKa); conditions: for [LH+]pH5/[LH+]pH7.4: ratio of protonated species at pH 5 and 7.4, I = 0.1 M NaClO4, T = 25 °C; for pH of precipitation during the titration: H2O/DMSO, 91/1 v/v as printed, pKa could not be accurately evaluated
Text: The HClO4 and NaOH solutions were freshly prepared just before use and titrated with sodium tetraborate decahydrate (B4Na2O7·10H2O, puriss, p.a, Fluka) and potassium hydrogen phthalate (C8H5KO3, Fluka, puriss, p.a.), respectively, using methyl orange (RAL) and phenolphthalein (Prolabo, purum) as the indicators. The GLEE program was applied for the glass electrode calibration (standard electrode potential E0/mV and slope of the electrode/mV pH^−1) and to check carbonate levels of the NaOH solutions used (<5%). The cell was thermostated at 25.0 ± 0.2 °C by the flow of a Lauda E200 thermostat. A stream of argon, pre-saturated with water vapour, was passed over the surface of the solution.
The spectrophotometric data were analyzed with the Specfit program which adjusts the absorptivities and the stability constants of the species formed at equilibrium. Specfit uses factor analysis to reduce the absorbance matrix and to extract the eigenvalues prior to the multiwavelength fit of the reduced data set according to the Marquardt algorithm.

[10] = observation of precipitation in DMSO; assay type: physicochemical; conditions: table footnote *
[11] = in 0.4 M KCl; cited from earlier work
[12] = P. falciparum Dd2, tritiated hypoxanthine incorporation method
[13] = P. falciparum Dd2, SYBRgreen method, 72 h
[14] = Plasmodium falciparum, DD2, 72 h
[15] = 10 mg/kg ip for 5 days, Swiss mice
[16] = 10 mg/kg ip for 5 days, Swiss mice, day 14 post infection
[17] = 10 mg/kg ip for 5 days, infected Swiss mice
[18] = Plasmodium falciparum, P. falciparum Dd2, SYBRgreen method, 72 h
[19] = 0.1 M NaClO4 in water/DMSO (91:9 v/v)
[20] = 50 mg/kg ip for 5 days, Swiss mice
[21] = Plasmodium falciparum, DD2, P. falciparum Dd2, tritiated hypoxanthine incorporation method

2-(4′-nitro-Butyl-biphenyl-4-ylmethyl)-3-methyl-[1,4]naphthoquinone [Compound 28]
Tox/MRC-5 [1]: >64.0 µM | IC50 [2, 12]: 0.474 µM

2-Methyl-3-(2-bromo-benzyl)-4a,8a-dihydro-[1,4]naphthoquinone [Compound 25a]
Tox/MRC-5 [1]: >64.0 µM | IC50 [3, 13]: 86.3 nM

2-Methyl-3-(3-bromo-benzyl)-4a,8a-dihydro-[1,4]naphthoquinone [Compound 25b]
Tox/MRC-5 [1]: 20.8 µM | IC50 [3, 13]: 128 nM

2-Methyl-3-(4-bromo-benzyl)-4a,8a-dihydro-[1,4]naphthoquinone [Compound 25c]
Tox/MRC-5 [4]: >32.0 µM | Tox/MRC-5 (µM) [4]: >32.0 ^b µM | IC50 [3, 13]: 82 ± 2 nM | reduction of parasitemia [5]: 35.8% | IC50 [6]: 0.046 ± 0.004 µM

CCN(CC)CCCC(C)Nc1ccnc2cc(Cl)ccc12 (centres unmarked) [Chloroquine, chloroquine]
Tox/MRC-5 [4]: 51.5 µM | IC50 [3, 14]: 99 ± 19 nM | % Parasitaemia (dpi) 4 [7, 15]: 5.2% | % Suppression (dpi) 4 [7, 15]: 86.3% | % Parasitaemia (dpi) 7 [7, 15]: 9.8% | % Suppression (dpi) 7 [7, 15]: 76.8% | % Parasitaemia (dpi) 11 [7, 15]: 32.1% | % Suppression (dpi) 11 [7, 15]: 52.7% | % Parasitaemia (dpi) 14 [7, 16]: 56.2% | % Suppression (dpi) 14 [7, 16]: 9.2% | Health Status [7, 17]: From day 4 p.i. onwards: poor appearance, tremor, body weight loss, rough hair, one animal died before day 14 p.i. | survival until day 7 [7, 17]: 100% | IC50 [6]: 0.11 ± 0.02 µM | Kd [8]: 2 to 15 µM

CC1=C(Cc2ccc(N(C)C)cc2)C(=O)c2ccccc2C1=O [Compound 3, 2-(4-(Dimethylamino)benzyl)-3-methylnaphthalene-1,4-dione]
Tox/MRC-5 [1]: >64.0 µM | IC50 [3, 18]: 567 ± 217 nM | pKa [9, 19]: 4.87 ± 0.03 | [LH+]pH5/[LH+]pH7.4 ([9]; Water/DMSO (0.91/0.09 v/v)): 144.7

CC1=C(Cc2ccc(NC(=O)OC(C)(C)C)cc2)C(=O)c2ccccc2C1=O [Compound 6, tert-Butyl(4-((3-Methyl-1,4-dioxo-1,4-dihydronaphthalen-2-yl)methyl)phenyl) carbamate]
Tox/MRC-5 [1]: >64.0 µM | IC50 [3, 18]: 109 ± 46 nM | % Parasitaemia (dpi) 4 [7, 20]: 9.4% | % Suppression (dpi) 4 [7, 20]: 75.5% | % Parasitaemia (dpi) 7 [7, 20]: 7.7% | % Suppression (dpi) 7 [7, 20]: 81.8% | % Parasitaemia (dpi) 11 [7, 20]: 41.9% | % Suppression (dpi) 11 [7, 20]: 38.1% | % Parasitaemia (dpi) 14 ([7]; 50 mg/kg ip for 5 days, Swiss mice, day 14 post infection): 69.3% | Health Status ([7]; 50 mg/kg ip for 5 days, infected Swiss mice): From day 4 p.i. onwards: poor appearance (intermittent), one animal died before day 14 p.i. | IC50 [2, 12]: 0.0425 µM | IC50 [2, 21]: 0.042 µM

CC1=C(Cc2ccc(N)cc2)C(=O)c2ccccc2C1=O [Compound 7, 2-(4-Aminobenzyl)-3-methylnaphthalene-1,4-dione]
Tox/MRC-5 [1]: >64.0 µM | IC50 [3, 18]: 303 ± 138 nM | [LH+]pH5/[LH+]pH7.4 ([9]; Water): 162.5 | pKa ([9]; water with 0.1 M NaClO4): 4.74 ± 0.05

CC(=O)Nc1ccc(CC2=C(C)C(=O)c3ccccc3C2=O)cc1 [Compound 9, N-(4-((3-Methyl-1,4-dioxo-1,4-dihydronaphthalen-2-yl)methyl)phenyl)acetamide]
IC50 [3, 14]: 411 ± 220 nM

CCN(CC)c1ccc(CC2=C(C)C(=O)c3ccccc3C2=O)cc1 [Compound 11, 2-(4-(Diethylamino)benzyl)-3-methylnaphthalene-1,4-dione]
Tox/MRC-5 [1]: 29.3 µM | IC50 [3, 18]: 2060 ± 1070 nM | pKa [9, 19]: 5.07 ± 0.06 | [LH+]pH5/[LH+]pH7.4 ([9]; Water/DMSO (0.91/0.09 v/v)): 112.0

CC(=O)Nc1cccc(CC2=C(C)C(=O)c3ccccc3C2=O)c1 [Compound 16, N-(3-((3-Methyl-1,4-dioxo-1,4-dihydronaphthalen-2-yl)methyl)phenyl)acetamide]
IC50 [3, 14]: 310 ± 134 nM

CC1=C(Cc2cccc(N)c2)C(=O)c2ccccc2C1=O [Compound 17, 2-(3-Aminobenzyl)-3-methylnaphthalene-1,4-dione]
Tox/MRC-5 [1]: >64.0 µM | IC50 [3, 18]: 1200 ± 1650 nM | [LH+]pH5/[LH+]pH7.4 ([9]; Water): 209.6 | pKa ([9]; water with 0.1 M NaClO4): 4.3 ± 0.02 | behaviour in DMSO [10]: Precipitates in DMSO

CC1=C(Cc2cccc(N(C)C)c2)C(=O)c2ccccc2C1=O [Compound 18, 2-(3-(Dimethylamino)benzyl)-3-methylnaphthalene-1,4-dione]
Tox/MRC-5 [1]: >64.0 µM | IC50 [3, 18]: 386 ± 151 nM | pKa [9, 19]: 4.6 ± 0.04 | [LH+]pH5/[LH+]pH7.4 ([9]; Water/DMSO (0.91/0.09 v/v)): 179.9

CCN(CC)c1cccc(CC2=C(C)C(=O)c3ccccc3C2=O)c1 [Compound 19, 2-(3-(Diethylamino)benzyl)-3-methylnaphthalene-1,4-dione]
Tox/MRC-5 [1]: >64.0 µM | IC50 [3, 18]: 236 ± 97 nM | pKa [9, 19]: 5 to 5.5 | pH of precipitation during the titration [9]: ~ 5

CC(=O)Nc1ccccc1CC1=C(C)C(=O)c2ccccc2C1=O [Compound 22, N-(2-((3-Methyl-1,4-dioxo-1,4-dihydronaphthalen-2-yl)methyl)phenyl)acetamide]
Tox/MRC-5 [1]: 4.4 µM | IC50 [3, 18]: 282 ± 86 nM | melting point: 218 to 220 °C

CC1=C(Cc2ccc(-c3ccc(N(C)C)cc3)cc2)C(=O)c2ccccc2C1=O [Compound 26, 2-(4′-Dimethylamino-biphenyl-4-ylmethyl)-3-methyl-[1,4]naphthoquinone]
Tox/MRC-5 [1]: >64.0 µM | melting point: 170 to 171 °C | fold higher IC50 value than plasmodione ([2]; P. falciparum Dd2, hypoxanthine incorporation test): 10 fold | IC50 [2, 12]: 0.223 µM | IC50 [2, 21]: 0.229 µM

CC1=C(Cc2ccc(-c3ccc(C(C)(C)C)cc3)cc2)C(=O)c2ccccc2C1=O [Compound 27, 2-(4′-tert-Butyl-biphenyl-4-ylmethyl)-3-methyl-[1,4]naphthoquinone]
Tox/MRC-5 [1]: >64.0 µM | melting point: 112 to 114 °C | IC50 [2, 21]: 0.485 µM

OCCN(CCO)c1ccccc1 [N-phenyldiethanolamine]
pKa [11]: 4.13

para-N-ethyl-3-benzylmenadione [Compound 10]
Tox/MRC-5 [1]: >64.0 µM | IC50 [3, 13]: 418 ± 166 nM | pKa ± σ [9]: 5–5.5 | pH of precipitation during the titration [9]: ~ 5
